In patent publication US4808596A, “Imidazo[4,5-b]pyridine compounds and pharmaceutical compositions containing same” (Tokyo Tanabe Company, Ltd., priority 1986, dated 1989):

Key:
[1] = system: various experimental ulcers; assay: Inhibitory effects on various experimental ulcers (overall statement); set-up: species or system male Wistar rats; details: in vivo
Description: (§1) The inhibitory effects of the present compounds [I] on various experimental ulcers were tested by using male Wistar rats, weighing about 200 g, in groups of six and determining the respective ulceration indexes for 5 types of experimental ulcers. In each test, the test compounds were suspended in a 0.5% aqueous solution of carboxymethyl cellulose and administered orally in a series of appropriately selected doses ranging from 1 to 100 mg/kg. The test procedures for 5 types of experimental ulcers were as follows:
(§2) The pharmacological effect of the test compounds on each of the aforesaid experimental ulcers was evaluated on the basis of the dose (in mg/kg) required to inhibit the formation of ulcers by 50% (hereinafter referred to as ID50). The ID50 value of each test compound was determined by calculating the difference in ulceration index between the untreated group and each treated group, dividing the difference by the ulceration index of the untreated group to obtain the degree of inhibition, and constructing a dose-response curve on the basis of the data thus obtained. For purposes of comparison, the ID50 values of Omeprazole and Compounds α and β were determined in the same manner as described above and are also shown in Table 4.

Indomethacin ulcer = assay: Inhibitory effect on indomethacin ulcer; assay type: in vivo, male Wistar rats; details: Rattus norvegicus; oral, rats; 30 minutes before indomethacin 25 mg/kg s.c.; 7 hours; read-out: Inhibitory effect on Indomethacin ulcer, ID50
Description: as §1
To rats which had been fasted for 24 hours, indomethacin was subcutaneously administered in a dose of 25 mg/kg. After 7 hours, each rat was sacrificed and the length of the ulcer(s) formed in the glandular stomach part was measured. The ulceration index was calculated on the basis of the data thus obtained. The test compounds were administered 30 minutes before administration of indomethacin.
as §2

gastric acid secretion = assay: Inhibitory effect on gastric acid secretion (pylorus ligation); assay type: in vivo, male Wistar rats; details: for ED50: Rattus norvegicus, po, rats, total acidity of gastric juice 4 hours after pylorus ligation; for inhibitory effect on gastric acid secretion (in words): in vivo
Description: The inhibitory effect of the present compounds [I] on gastric acid secretion was tested by using male Wistar rats, weighing about 200 g, in groups of five. To these rats which had been fasted overnight, the test compounds were orally administered in a series of appropriately selected doses ranging from 1 to 100 mg/kg. Then, the pyloric end of the stomach was ligated. After the lapse of 4 hours, the total acidity of gastric juice of each rat was measured. More specifically, the test compounds were suspended in a 0.5% aqueous solution of carboxymethyl cellulose and administered to the rats 30 minutes before ligation. Gastric juice was collected by sacrificing and laparotomizing each rat. The total acidity of gastric juice was determined by titrating the gastric juice with a 0.1 N aqueous solution of sodium hydroxide until a pH of 7.0 was reached. As a control experiment, the total acidity of gastric juice of an untreated group was determined in the same manner as described above. The inhibitory effect of the test compounds on gastric acid secretion was evaluated on the basis of the dose (in mg/kg) required to inhibit gastric acid secretion, i.e. the total acidity of gastric juice, by 50% (hereinafter referred to as ED50). The ED50 value of each test compound was determined by calculating the difference in total acidity between the untreated group and each treated group, dividing the difference by the total acidity of the untreated group to obtain the degree of inhibition, and constructing a dose-response curve on the basis of the data thus obtained. For purposes of comparison, the ED50 values of Omeprazole and Compounds α and β were determined in the same manner as described above and are also shown in Table 3.

[2] = Acute toxicity test (LD50); details: rat, in vivo, rats
Description: The acute toxicity (LD50) of several typical examples of the present compounds [I] (i.e., the compounds of Examples 1, 8, 13, 19, 24, 26 and 33) was tested with 5-weeks-old male Wistar rats. […] When Omeprazole was administered orally, its LD50 value was greater than 4000 mg/kg.

[3] = ip, intraperitoneal administration

Structure (SMILES)	inhibitory effects on various experimental ulcers (in words) [1]	ED50 (Indomethacin ulcer)	ED50 (gastric acid secretion)	inhibitory effect on gastric acid secretion (in words) (gastric acid secretion)	LD50 [2, 3]	LD50 ([2]; oral administration)
COc1c(C)cnc(C[S+]([O-])c2nc3ncc(Br)cc3[nH]2)c1C (stereo not drawn) [Compound α, 2-[2-(3,5-dimethyl-4-methoxy)pyridylmethylsulfinyl]-6-bromoimidazo[4,5-b]pyridine, reference compound]	not satisfactorily reflected in the in vivo tests	78.4 mg/kg	73 mg/kg	not satisfactorily reflected in the in vivo tests	–	–
COc1c(C)cnc(C[S+]([O-])c2nc3ncc(C)cc3[nH]2)c1C (stereo not drawn) [Compound β, 2-[2-(3,5-dimethyl-4-methoxy)pyridylmethylsulfinyl]-6-methylimidazo[4,5-b]-pyridine, reference compound]	not satisfactorily reflected in the in vivo tests	29.5 mg/kg	41 mg/kg	not satisfactorily reflected in the in vivo tests	–	–
COc1ccc2[nH]c([S+]([O-])Cc3ncc(C)cc3C)nc2n1 (centres unmarked) [Example 1, 2-[2-(3,5-Dimethyl)pyridylmethylsulfinyl]-5-methoxyimidazo[4,5-b]pyridine]	–	12.9 mg/kg	13 mg/kg	–	> 500 mg/kg	> 4000 mg/kg
CCOc1ccc2[nH]c([S+]([O-])Cc3ncc(C)c(C)c3C)nc2n1 (centres unmarked) [Example 8, 2-[2-(3,4,5-Trimethyl)pyridylmethylsulfinyl]-5-ethoxyimidazo[4,5-b]pyridine]	–	18.8 mg/kg	12 mg/kg	–	> 500 mg/kg	> 4000 mg/kg
COc1cc(C[S+]([O-])c2nc3nc(OCC4CC4)ccc3[nH]2)ncc1C (centres unmarked) [Example 13, 2-[2-(4-Methoxy-5-methyl)pyridylmethylsulfinyl]-5-cyclopropylmethyloxyimidazo[4,5-b]pyridine]	–	21.9 mg/kg	18 mg/kg	–	> 500 mg/kg	> 4000 mg/kg
COc1c(C)cnc(C[S+]([O-])c2nc3nc(OCC4CC4)ccc3[nH]2)c1C (centres unmarked) [Example 24, 2-[2-(3,5-Dimethyl-4-methoxy)pyridylmethylsulfinyl]-5-cyclopropylmethyloxyimidazo[4,5-b]pyridine]	–	13.1 mg/kg	9 mg/kg	–	> 500 mg/kg	> 4000 mg/kg
COc1c(C)cnc(C[S+]([O-])c2nc3nc(OCC(F)(F)F)ccc3[nH]2)c1C (centres unmarked) [Example 26, 2-[2-(3,5-Dimethyl-4-methoxy)pyridylmethylsulfinyl]-5-(2,2,2-trifluoroethoxy)imidazo[4,5-b]pyridine]	–	15.8 mg/kg	15 mg/kg	–	> 500 mg/kg	> 4000 mg/kg
CCCCCCCOc1ccc2[nH]c([S+]([O-])Cc3ncc(C)cc3C)nc2n1 (centres unmarked) [Example 33, 2-[2-(3,5-Dimethyl)pyridylmethylsulfinyl]-5-n-heptyloxyimidazo[4,5-b]pyridine]	–	23.2 mg/kg	17 mg/kg	–	> 500 mg/kg	> 4000 mg/kg
COc1ccc2[nH]c([S+]([O-])Cc3ncc(C)c(OC)c3C)nc2c1 (centres unmarked) [Omeprazole, reference compound]	–	24.7 mg/kg	35 mg/kg	–	–	> 4000 mg/kg
